Reference: article PMC3852541, “Construction of an in vitro bypassed pyruvate decarboxylation pathway using thermostable enzyme modules and its application to N-acetylglutamate production” (Microbial Cell Factories, 2013)

Molecular target: T1, TtADDH (Thermus thermophilus, UniProt Q53WH9)
T1 construct: gene TTHB247; full-length from RIKEN T. thermophilus HB8 expression plasmid set; E. coli Rosetta2 (DE3), heat-treated lysate (70 C, 30 min)
Assay: NAD+ reduction at […] nm; HPLC of products
Type: biochemical
Conditions: 0.2 mM NAD+, 0.2 mM CoA, 0.2 mM acetaldehyde; 50 mM HEPES-NaOH pH 7.0, 100 mM KCl, 10 mM MgCl2, 50 C

T1 sequence (Q53WH9 whole entry): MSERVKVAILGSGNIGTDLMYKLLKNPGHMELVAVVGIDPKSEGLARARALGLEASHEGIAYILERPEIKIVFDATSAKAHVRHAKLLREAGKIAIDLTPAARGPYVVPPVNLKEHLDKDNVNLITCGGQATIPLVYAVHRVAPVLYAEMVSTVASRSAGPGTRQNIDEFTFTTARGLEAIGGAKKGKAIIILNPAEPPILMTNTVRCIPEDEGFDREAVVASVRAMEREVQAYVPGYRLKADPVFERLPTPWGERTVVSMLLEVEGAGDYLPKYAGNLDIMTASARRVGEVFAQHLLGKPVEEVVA

`CC=O` [acetaldehyde] was tested. Which “NAD+ reduction at 340 nm; HPLC of products” value did it give?
Its value is “TtADDH could catalyze the oxidation of acetaldehyde in both CoA-dependent (acetyl-CoA-forming) and CoA-independent”.
